Experimental findings from patent US10208040B2, “Fused imidazo-piperidine JAK inhibitors” (THERAVANCE BIOPHARMA R&D IP, LLC, priority 2017, dated 2019) are described below.

One assay concerns the target JAK2 (Homo sapiens (Human), UniProt O60674). Kind of assay: Biochemical JAK kinase assay (LanthaScreen), JAK2. The protocol: (§1) A panel of four LanthaScreen JAK biochemical assays (JAK1, 2, 3 and Tyk2) were carried in a common kinase reaction buffer (50 mM HEPES, pH 7.5, 0.01% Brij-35, 10 mM MgCl2, and 1 mM EGTA). Recombinant GST-tagged JAK enzymes and a GFP-tagged STAT1 peptide substrate were obtained from Life Technologies.
(§2) Serially diluted compounds were pre-incubated with each of the four JAK enzymes and the substrate in white 384-well microplates (Corning) at ambient temperature for 1 h. ATP was subsequently added to initiate the kinase reactions in 10 μL total volume, with 1% DMSO. […] The plates were allowed to incubate at ambient temperature for 1 h before being read on the EnVision reader (Perkin Elmer).
(§3) For dose-response analysis, percent inhibition data were plotted vs. compound concentrations, and IC50 values were determined from a 4-parameter robust fit model with the Prism software (GraphPad Software). Results were expressed as pIC50 (negative logarithm of IC50) and subsequently converted to pKi (negative logarithm of dissociation constant, Ki) using the Cheng-Prusoff equation.
For orientation: In TR-FRET formats the signal depends on donor and acceptor labels being close together.

For assay [1], the system named is IL-13 induced pSTAT6 in lung tissue. Kind of assay: Murine model of IL-13 induced pSTAT6 induction in lung tissue. The note with it: mouse lung, oral aspiration 1 mg/mL 50 μL, IL-13 challenge 4 h post dose, pSTAT6 at 5 hours. It counts as in vivo. The method, then:
IL-13 is an important cytokine underlying the pathophysiology of asthma (Kudlacz et al. Eur. J. Pharmacol, 2008, 582, 154-161). IL-13 binds to cell surface receptors activating members of the Janus family of kinases (JAK) which then phosphorylate STAT6 and subsequently activates further transcription pathways. In the described model, a dose of IL-13 was delivered locally into the lungs of mice to induce the phosphorylation of STAT6 (pSTAT6) which is then measured as the endpoint.
Adult balb/c mice from Harlan were used in the assay. On the day of study, animals were lightly anesthetized with isoflurane and administered either vehicle or test compound (1 mg/mL, 50 μL total volume over several breaths) via oral aspiration. Animals were placed in lateral recumbency post dose and monitored for full recovery from anesthesia before being returned to their home cage. Four hours later, animals were once again briefly anesthetized and challenged with either vehicle or IL-13 (0.03 μg total dose delivered, 50 μL total volume) via oral aspiration before being monitored for recovery from anesthesia and returned to their home cage. One hour after vehicle or IL-13 administration, lungs were collected for both pSTAT6 detection using an anti-pSTAT6 ELISA (rabbit mAb capture/coating antibody; mouse mAb detection/report antibody: anti-pSTAT6-pY641; secondary antibody: anti-mouse IgG-HRP) and analyzed for total drug concentration as described above in Assay 3.
Selected compounds of the invention were tested in the assay. Activity in the model is evidenced by a decrease in the level of pSTAT6 present in the lungs of treated animals at 5 hours compared to the vehicle treated, IL-13 challenged control animals. The difference between the control animals which were vehicle-treated, IL-13 challenged and the control animals which were vehicle-treated, vehicle challenged dictated the 0% and 100% inhibitory effect, respectively, in any given experiment.

The target of a further assay is JAK1 (Homo sapiens (Human), UniProt P23458). Kind of assay: Biochemical JAK kinase assay (LanthaScreen), JAK1. The method, then: as §1, §2, §3
In assay [2] the test system is IL-6 stimulated STAT3 phosphorylation in CD3+ T cells. Kind of assay: Inhibition of IL-6 stimulated pSTAT3 in CD3+ T cells. Format: cell-based, human. The note with it: for IC50: T-cell, CD3+ T cells in human PBMCs, read-out: pIC50 inhibition of IL-6 stimulated pSTAT3 (converted). From the text: A protocol analogous to that of Assay 9 was used to determine the potency of the test compound for inhibition of interleukin-6 (IL-6) stimulated STAT3 phosphorylation. An Alexa Fluor 647 conjugated anti-pSTAT3 antibody (pY705, Clone 4/P, BD Biosciences) was used to detect STAT3 phosphorylation.

Assay [3] relates to IL-2/anti-CD3 stimulated STAT5 phosphorylation in CD4+ T cells. Kind of assay: Inhibition of IL-2 stimulated pSTAT5 in CD4+ T cells. It counts as cell-based. The note with it: CD4+ T cells in human PBMCs; read-out: pIC50 inhibition of IL-2 stimulated pSTAT5 (converted). The method, then: The potency of the test compound for inhibition of interleukin-2 (IL-2)/anti-CD3 stimulated STATS phosphorylation was measured in CD4-positive (CD4+) T cells in human peripheral blood mononuclear cells (PBMCs) isolated from human whole blood (Stanford Blood Center) using flow cytometry. Because IL-2 signals through JAK, this assay provides a measure of JAK cellular potency.
CD4+ T cells were identified using a […] (PE) conjugated anti-CD4 antibody (Clone RPA-T4, BD Biosciences), while an Alexa Fluor 647 conjugated anti-pSTAT5 antibody (pY694, Clone 47, BD Biosciences) was used to detect STATS phosphorylation.
(1) The protocol of Assay 7 paragraph (1) was followed with the exception that the cytokine stimulation with anti-CD3 was performed for 30 min instead of 24 h.
(2) After cytokine stimulation, cells were fixed with pre warmed fix solution (200 μL; BD Biosciences) for 10 min at 37° C., 5% CO2, washed twice with DPBS buffer (1 mL, Life Technologies), and resuspended in ice cold Perm Buffer III (1000 μL, BD Biosciences) for 30 min at 4° C. Cells were washed twice with 2% FBS in DPBS (FACS buffer), and then resuspended in FACS buffer (100 μL) containing anti-CD4 PE (1:50 dilution) and anti-CD3 […] (1:5 dilution) for 60 min at room temperature in the dark. After incubation, cells were washed twice in FACS buffer before being analyzed using a LSRII flow cytometer (BD Biosciences). To determine the inhibitory potency of test compounds in response to IL-2/anti-CD3, the median fluorescent intensity (MFI) of pSTAT5 was measured in CD4+ T cells. IC50 values were determined from analysis of the inhibition curves of MFI vs compound concentration. Data are expressed as pIC50 (negative decadic logarithm IC50) values.

Chain of JAK2 (O60674 whole entry): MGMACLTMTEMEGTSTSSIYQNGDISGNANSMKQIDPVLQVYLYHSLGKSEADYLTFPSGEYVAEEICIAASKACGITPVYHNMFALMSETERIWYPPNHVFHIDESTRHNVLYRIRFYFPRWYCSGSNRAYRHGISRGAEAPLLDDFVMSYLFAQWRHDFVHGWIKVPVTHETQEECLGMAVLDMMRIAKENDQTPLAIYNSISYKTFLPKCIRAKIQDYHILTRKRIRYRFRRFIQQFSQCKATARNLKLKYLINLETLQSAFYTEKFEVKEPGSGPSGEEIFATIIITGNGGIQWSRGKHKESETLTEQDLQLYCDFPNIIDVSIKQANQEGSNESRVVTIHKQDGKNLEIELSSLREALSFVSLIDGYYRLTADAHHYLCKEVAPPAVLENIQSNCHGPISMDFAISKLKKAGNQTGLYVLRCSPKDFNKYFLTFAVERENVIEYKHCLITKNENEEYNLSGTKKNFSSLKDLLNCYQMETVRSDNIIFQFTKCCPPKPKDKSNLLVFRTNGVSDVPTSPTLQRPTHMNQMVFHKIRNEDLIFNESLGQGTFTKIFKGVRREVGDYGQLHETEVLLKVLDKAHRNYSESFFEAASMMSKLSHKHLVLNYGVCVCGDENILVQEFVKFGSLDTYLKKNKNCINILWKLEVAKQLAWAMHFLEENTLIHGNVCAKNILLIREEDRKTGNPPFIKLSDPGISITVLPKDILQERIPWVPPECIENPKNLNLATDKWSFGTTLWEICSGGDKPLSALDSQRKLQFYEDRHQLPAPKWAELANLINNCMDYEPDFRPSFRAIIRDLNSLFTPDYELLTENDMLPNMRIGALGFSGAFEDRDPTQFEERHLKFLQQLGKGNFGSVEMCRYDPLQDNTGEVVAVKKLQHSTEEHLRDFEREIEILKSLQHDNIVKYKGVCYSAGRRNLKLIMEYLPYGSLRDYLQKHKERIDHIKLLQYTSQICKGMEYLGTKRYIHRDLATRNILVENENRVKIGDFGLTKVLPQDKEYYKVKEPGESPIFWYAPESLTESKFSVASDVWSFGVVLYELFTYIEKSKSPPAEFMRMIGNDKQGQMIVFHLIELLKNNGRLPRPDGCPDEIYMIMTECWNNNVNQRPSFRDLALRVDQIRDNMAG
Chain of JAK1 (P23458 whole entry): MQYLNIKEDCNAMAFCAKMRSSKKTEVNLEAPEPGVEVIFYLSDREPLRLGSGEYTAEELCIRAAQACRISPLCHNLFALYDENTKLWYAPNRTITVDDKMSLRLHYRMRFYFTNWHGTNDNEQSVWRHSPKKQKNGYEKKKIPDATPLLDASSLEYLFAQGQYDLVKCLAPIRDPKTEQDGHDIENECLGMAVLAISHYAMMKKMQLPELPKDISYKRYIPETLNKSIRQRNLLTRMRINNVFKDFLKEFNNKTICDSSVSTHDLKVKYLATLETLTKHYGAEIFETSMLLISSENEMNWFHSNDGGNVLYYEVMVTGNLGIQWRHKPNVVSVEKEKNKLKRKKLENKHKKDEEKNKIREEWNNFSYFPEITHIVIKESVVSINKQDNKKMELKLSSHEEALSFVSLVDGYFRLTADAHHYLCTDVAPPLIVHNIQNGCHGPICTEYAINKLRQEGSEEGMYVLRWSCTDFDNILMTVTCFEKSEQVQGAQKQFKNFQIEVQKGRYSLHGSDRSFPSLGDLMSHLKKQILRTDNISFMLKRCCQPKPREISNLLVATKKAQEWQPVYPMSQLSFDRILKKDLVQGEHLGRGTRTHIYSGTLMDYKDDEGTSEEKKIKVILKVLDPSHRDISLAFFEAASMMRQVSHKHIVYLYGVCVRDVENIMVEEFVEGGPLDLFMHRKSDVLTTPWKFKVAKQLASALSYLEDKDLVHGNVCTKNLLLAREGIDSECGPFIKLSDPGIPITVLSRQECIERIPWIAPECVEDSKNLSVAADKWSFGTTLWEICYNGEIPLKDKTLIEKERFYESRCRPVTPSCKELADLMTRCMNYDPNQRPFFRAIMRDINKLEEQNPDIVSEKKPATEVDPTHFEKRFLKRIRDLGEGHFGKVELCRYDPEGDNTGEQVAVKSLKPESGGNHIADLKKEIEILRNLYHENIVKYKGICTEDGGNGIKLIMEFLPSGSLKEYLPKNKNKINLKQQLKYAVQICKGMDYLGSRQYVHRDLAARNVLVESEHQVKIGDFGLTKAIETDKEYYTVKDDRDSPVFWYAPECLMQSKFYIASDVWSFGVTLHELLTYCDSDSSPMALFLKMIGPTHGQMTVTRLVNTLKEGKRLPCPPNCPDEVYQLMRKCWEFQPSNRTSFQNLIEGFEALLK

As for `CCCN1Cc2[nH]c(-c3n[nH]c4cc(-c5cc(F)c(O)cc5CC)ccc34)nc2C[C@H]1C(=O)N1C[C@@H]2C[C@H]1CN2C` [Example 1, ((S)-2-(6-(2-ethyl-5-fluoro-4-hydroxyphenyl)-1H-indazol-3-yl)-5-propyl-4,5,6,7-tetrahydro-3H-imidazo[4,5-c]pyridin-6-yl)((1S,4S)-5-methyl-2,5-diazabicyclo-[2.2.1]heptan-2-yl)methanone], the values for the Ki on JAK2 and on JAK1 were 0.02 nM and 0.05 nM, respectively. In assay [1], the “pSTAT6 inhibition Assay 4” value was “A (A represents between 60% and 80% inhibition)”. Also, the “inhibition of IL-6 signaling (in words)” value in assay [2] is listed as “inhibit IL-6 signaling”. The IC50 in assay [2] was 63.1 nM; in assay [3] it was approximately 50.1 nM.

As for `CCc1cc(O)c(F)cc1-c1ccc2c(-c3nc4c([nH]3)CN(CC)[C@@H](C(=O)N3CCN(C(C)(C)C)CC3)C4)n[nH]c2c1` [Example 1-37], the Ki (commonly a measure of affinity in units of concentration, obtained from inhibition or displacement) on JAK2 came to 0.04 nM; on JAK1 it was 0.1 nM. Also, the “pSTAT6 inhibition Assay 4” value in assay [1] is “C (C represents between 25% and 40% inhibition)”. For the same molecule, the IC50 in assay [3] was approximately 7.94 nM.

Turning to `CCc1cc(O)c(F)cc1-c1ccc2c(-c3nc4c([nH]3)CN(C(C)C)[C@H](C(=O)N3CC[C@H](N(C)C)C3)C4)n[nH]c2c1` [Example 3], the Ki on JAK2 was 0.02 nM; on JAK1 it was 0.06 nM. In assay [1], the “pSTAT6 inhibition Assay 4” value was “B (B represents between 40% and 60% inhibition)”. Besides, the “inhibition of IL-6 signaling (in words)” value in assay [2] is “inhibit IL-6 signaling”. Besides, the results for the IC50 in assay [2] and in assay [3] were 39.8 nM and approximately 20 nM, respectively.
